Assay results: publication PMC3933009, “Identification and characterization of a galacturonic acid transporter from Neurospora crassa and its application for Saccharomyces cerevisiae fermentation processes” (Biotechnology for Biofuels, 2014)

Assays:
Format in all cases: cell-based
[1] = target: T1, uronate dehydrogenase (UDH) (Agrobacterium fabrum, UniProt Q7CRQ0); test: bioconversion in engineered yeast, LC-MS/MS of meso-galactaric acid; details: 90 μM D-GalA, pH 5.8, 30°C; endogenous NAD+; GAT-1 co-expressed
T1 construct: open reading frame, Cen6/leu2 vector with TDH3 promoter, expressed in S. cerevisiae with gat-1-GFP integrated
T1 sequence (Q7CRQ0 1-265): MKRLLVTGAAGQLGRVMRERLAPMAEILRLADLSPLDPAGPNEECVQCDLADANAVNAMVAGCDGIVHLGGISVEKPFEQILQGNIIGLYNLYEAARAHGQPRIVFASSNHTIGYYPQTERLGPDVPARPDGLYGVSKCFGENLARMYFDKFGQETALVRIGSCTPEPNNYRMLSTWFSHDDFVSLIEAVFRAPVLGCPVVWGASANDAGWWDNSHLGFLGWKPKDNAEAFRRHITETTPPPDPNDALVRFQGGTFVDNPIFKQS

[2] = target: T2, D-galacturonate reductase (GAAA) (Aspergillus niger, UniProt A8DRH9); test: bioconversion in engineered yeast, LC-MS/MS of L-galactonic acid; details: 90 μM D-GalA, pH 5.8, 30°C; endogenous NADPH; GAT-1 co-expressed; native yeast reductase background
T2 construct: codon-optimized gene, Cen6/leu2 vector with TDH3 promoter, expressed in S. cerevisiae with gat-1-GFP integrated
T2 sequence (A8DRH9 1-412): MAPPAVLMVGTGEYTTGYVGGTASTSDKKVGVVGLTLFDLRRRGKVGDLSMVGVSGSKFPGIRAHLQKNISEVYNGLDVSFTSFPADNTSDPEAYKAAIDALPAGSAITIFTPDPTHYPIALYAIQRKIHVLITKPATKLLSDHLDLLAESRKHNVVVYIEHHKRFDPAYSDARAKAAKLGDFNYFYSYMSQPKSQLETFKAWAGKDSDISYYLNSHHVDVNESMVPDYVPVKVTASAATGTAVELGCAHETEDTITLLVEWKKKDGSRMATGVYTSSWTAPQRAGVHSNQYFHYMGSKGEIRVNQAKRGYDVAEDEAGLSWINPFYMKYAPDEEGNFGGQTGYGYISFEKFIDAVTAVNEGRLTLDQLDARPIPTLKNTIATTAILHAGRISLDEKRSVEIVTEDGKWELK

[3] = target: T3, quinate permease (NCU06026; quinate-Y) (Neurospora crassa, UniProt P11636); test: uptake by induced mycelia, WT versus deletion strain, MS detection; details: 90 μM quinic acid plus D-GalA, Vogel's salts, 25°C
T3 construct: gene qa-y; native protein in mycelia; wild type compared with deletion strain
T3 sequence (P11636 whole entry): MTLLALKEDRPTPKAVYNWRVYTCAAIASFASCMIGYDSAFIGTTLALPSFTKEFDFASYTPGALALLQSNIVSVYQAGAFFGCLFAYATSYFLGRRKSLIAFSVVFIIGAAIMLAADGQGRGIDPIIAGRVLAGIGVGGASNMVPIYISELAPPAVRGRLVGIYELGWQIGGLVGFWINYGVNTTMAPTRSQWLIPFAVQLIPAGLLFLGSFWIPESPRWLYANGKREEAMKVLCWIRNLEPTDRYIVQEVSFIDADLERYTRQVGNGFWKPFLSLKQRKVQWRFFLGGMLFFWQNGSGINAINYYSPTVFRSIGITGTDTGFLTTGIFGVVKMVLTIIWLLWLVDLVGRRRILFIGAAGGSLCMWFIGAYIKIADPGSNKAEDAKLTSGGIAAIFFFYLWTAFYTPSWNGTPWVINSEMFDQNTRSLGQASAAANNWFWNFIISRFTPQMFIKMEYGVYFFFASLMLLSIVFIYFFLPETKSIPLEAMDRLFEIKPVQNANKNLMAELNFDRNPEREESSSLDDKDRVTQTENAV

Structure (SMILES)	bioconversion in engineered yeast, LC-MS/MS of meso-galactaric acid [1]	bioconversion in engineered yeast, LC-MS/MS of L-galactonic acid [2]	uptake by induced mycelia, WT versus deletion strain, MS detection [3]
O=C(O)[C@H]1OC(O)[C@H](O)[C@@H](O)[C@H]1O (stereo partly drawn) [D-GalA]	GalAA production was enzyme (UDH)dependent	expression of the reductase resulted in a higher product yield (GAAA/GAT-1)	
O=C(O)[C@]1(O)C[C@@H](O)[C@@H](O)[C@H](O)C1 [quinic acid]			almost completely unable to take up qa, indicating that it is the only physiologically relevant transporter
